Data taken from US20100137449A1, “SUBSTITUTED 1,3-CYCLOPENTADIONE MULTI-TARGET PROTEIN KINASE MODULATORS OF CANCER, ANGIOGENESIS AND THE INFLAMMATORY PATHWAYS ASSOCIATED THEREWITH” (METAPROTEOMICS, LLC, priority 2007, published 2010).

Key:
Experiment in all cases: KinaseProfiler Assay
[1] = target: HIPK2(h) (Homo sapiens, UniProt Q9H2X6)
[2] = target: CDK9/cyclin T1(h) (Homo sapiens, UniProt P50750)
[3] = target: Syk(h) (Homo sapiens, UniProt P43405)
[4] = target: Tie2(R849W)(h) (Homo sapiens, UniProt Q02763, R849W)
[5] = target: GSK3α(h) (Homo sapiens, UniProt P49840)
[6] = target: WNK3(h) (Homo sapiens, UniProt Q9BYP7)
[7] = target: T1, NEK3(h) (Homo sapiens, UniProt P51956)
T1 sequence (P51956 1-506): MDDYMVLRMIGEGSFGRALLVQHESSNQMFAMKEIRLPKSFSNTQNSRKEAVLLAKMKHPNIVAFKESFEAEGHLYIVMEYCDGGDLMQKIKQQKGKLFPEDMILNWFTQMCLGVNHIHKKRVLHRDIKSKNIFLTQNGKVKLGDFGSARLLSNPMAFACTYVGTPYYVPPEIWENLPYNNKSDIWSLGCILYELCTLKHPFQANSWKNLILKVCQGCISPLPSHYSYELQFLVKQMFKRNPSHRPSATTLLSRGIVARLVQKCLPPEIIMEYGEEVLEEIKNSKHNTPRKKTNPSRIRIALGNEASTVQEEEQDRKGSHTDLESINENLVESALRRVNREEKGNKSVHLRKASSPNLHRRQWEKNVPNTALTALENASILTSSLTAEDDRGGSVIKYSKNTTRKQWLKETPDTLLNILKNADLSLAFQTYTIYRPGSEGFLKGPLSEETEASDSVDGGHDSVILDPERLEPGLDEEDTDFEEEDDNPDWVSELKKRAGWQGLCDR

[8] = target: Src(1-530)(h) (Homo sapiens, UniProt P12931)
[9] = target: T2, ULK2(h) (Homo sapiens, UniProt Q8IYT8)
T2 sequence (Q8IYT8 1-1036): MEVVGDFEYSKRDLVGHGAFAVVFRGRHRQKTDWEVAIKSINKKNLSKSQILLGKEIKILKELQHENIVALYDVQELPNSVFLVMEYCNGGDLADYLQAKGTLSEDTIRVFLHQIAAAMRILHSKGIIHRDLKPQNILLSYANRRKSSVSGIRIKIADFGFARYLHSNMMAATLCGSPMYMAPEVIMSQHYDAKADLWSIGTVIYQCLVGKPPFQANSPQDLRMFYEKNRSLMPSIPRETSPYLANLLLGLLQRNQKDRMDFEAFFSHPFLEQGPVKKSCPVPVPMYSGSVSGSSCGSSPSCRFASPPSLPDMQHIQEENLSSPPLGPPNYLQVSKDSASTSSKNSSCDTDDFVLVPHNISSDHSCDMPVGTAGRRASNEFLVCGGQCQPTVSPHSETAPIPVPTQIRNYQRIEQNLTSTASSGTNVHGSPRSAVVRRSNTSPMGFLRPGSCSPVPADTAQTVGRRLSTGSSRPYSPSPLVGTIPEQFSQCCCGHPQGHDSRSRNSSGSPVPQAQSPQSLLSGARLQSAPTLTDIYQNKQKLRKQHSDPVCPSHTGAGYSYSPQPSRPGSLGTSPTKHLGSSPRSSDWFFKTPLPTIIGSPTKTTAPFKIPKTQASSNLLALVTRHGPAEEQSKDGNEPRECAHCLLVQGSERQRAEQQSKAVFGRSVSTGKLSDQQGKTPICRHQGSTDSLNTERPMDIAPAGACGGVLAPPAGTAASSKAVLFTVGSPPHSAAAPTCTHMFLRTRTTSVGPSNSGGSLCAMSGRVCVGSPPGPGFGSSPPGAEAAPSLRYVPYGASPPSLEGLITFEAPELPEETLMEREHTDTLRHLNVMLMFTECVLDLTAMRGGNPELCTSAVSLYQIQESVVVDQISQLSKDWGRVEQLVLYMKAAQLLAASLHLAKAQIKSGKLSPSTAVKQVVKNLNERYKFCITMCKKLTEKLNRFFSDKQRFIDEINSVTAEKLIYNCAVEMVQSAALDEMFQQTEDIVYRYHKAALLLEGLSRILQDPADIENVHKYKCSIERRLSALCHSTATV

Sequence of Src(1-530)(h) (P12931 1-530): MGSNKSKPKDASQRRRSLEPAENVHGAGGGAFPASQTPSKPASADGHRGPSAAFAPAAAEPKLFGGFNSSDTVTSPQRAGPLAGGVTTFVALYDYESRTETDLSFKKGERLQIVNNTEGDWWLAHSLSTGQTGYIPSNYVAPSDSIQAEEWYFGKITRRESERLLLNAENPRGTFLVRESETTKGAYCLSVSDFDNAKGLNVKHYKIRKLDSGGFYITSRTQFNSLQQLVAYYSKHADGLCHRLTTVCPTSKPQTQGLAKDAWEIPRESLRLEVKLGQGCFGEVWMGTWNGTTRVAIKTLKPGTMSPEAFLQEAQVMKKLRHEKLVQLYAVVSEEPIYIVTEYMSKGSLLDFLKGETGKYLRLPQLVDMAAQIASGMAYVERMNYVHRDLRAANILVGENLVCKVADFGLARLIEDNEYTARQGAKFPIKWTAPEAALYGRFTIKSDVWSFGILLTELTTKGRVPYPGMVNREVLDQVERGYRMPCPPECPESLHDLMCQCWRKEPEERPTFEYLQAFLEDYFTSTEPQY
Sequence of Tie2(R849W)(h) (Q02763 23-1124 R849W): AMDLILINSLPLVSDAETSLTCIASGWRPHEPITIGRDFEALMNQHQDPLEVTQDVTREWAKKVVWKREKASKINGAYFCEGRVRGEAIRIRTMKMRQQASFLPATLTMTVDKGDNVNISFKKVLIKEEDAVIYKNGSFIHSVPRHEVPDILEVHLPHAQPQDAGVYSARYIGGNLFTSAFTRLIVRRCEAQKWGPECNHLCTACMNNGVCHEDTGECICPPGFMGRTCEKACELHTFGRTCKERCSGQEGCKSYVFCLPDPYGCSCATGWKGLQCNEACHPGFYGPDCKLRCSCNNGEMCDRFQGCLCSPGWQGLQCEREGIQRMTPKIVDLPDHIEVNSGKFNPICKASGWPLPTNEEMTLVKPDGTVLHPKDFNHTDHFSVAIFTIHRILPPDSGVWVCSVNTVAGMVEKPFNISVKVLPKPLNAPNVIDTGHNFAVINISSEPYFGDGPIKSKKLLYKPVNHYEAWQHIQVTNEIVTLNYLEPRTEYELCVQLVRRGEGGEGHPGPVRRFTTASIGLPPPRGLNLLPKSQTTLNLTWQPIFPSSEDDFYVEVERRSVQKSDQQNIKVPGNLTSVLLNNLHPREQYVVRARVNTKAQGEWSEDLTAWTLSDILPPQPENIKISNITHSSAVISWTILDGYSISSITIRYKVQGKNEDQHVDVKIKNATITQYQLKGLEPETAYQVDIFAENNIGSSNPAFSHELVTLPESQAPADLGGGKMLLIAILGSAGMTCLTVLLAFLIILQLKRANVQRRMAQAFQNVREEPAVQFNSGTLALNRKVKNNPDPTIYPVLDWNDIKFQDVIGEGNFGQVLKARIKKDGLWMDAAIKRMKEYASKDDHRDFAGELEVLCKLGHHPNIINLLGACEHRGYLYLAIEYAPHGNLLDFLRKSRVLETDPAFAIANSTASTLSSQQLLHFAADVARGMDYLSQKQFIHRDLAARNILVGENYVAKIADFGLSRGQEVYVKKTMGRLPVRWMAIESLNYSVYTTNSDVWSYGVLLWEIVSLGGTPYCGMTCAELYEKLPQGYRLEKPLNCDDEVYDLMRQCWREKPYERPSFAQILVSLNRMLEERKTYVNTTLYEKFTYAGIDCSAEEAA
Sequence of HIPK2(h) (Q9H2X6 whole entry): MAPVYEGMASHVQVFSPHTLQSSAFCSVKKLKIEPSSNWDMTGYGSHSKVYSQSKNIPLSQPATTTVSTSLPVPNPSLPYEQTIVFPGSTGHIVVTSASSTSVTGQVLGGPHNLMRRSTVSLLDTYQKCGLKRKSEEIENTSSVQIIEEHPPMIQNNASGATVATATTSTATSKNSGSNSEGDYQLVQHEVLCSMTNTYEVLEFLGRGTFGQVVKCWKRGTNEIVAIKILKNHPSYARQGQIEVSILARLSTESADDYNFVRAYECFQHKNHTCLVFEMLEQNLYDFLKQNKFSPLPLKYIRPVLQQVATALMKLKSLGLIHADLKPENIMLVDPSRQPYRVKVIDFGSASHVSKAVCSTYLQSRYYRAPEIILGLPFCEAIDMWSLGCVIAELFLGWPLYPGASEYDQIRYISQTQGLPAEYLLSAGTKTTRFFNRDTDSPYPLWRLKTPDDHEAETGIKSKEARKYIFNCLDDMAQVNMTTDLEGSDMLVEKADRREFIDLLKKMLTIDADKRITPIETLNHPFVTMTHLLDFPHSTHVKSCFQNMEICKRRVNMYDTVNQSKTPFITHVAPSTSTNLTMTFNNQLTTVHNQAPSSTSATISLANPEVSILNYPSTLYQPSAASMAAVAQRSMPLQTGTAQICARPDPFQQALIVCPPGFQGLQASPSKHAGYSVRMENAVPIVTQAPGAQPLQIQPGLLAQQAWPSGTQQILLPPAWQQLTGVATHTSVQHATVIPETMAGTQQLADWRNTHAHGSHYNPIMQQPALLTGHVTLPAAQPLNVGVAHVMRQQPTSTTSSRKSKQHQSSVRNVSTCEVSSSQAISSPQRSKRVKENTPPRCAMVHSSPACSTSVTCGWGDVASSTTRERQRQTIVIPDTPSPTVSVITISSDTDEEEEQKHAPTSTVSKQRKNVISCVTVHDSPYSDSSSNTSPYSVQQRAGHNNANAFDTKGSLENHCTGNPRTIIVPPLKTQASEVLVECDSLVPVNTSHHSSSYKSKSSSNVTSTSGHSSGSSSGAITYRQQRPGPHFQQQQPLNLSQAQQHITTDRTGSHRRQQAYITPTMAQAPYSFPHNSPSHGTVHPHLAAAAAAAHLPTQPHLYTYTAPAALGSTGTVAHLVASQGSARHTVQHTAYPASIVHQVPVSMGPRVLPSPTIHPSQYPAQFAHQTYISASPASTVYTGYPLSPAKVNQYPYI
Sequence of WNK3(h) (Q9BYP7 whole entry): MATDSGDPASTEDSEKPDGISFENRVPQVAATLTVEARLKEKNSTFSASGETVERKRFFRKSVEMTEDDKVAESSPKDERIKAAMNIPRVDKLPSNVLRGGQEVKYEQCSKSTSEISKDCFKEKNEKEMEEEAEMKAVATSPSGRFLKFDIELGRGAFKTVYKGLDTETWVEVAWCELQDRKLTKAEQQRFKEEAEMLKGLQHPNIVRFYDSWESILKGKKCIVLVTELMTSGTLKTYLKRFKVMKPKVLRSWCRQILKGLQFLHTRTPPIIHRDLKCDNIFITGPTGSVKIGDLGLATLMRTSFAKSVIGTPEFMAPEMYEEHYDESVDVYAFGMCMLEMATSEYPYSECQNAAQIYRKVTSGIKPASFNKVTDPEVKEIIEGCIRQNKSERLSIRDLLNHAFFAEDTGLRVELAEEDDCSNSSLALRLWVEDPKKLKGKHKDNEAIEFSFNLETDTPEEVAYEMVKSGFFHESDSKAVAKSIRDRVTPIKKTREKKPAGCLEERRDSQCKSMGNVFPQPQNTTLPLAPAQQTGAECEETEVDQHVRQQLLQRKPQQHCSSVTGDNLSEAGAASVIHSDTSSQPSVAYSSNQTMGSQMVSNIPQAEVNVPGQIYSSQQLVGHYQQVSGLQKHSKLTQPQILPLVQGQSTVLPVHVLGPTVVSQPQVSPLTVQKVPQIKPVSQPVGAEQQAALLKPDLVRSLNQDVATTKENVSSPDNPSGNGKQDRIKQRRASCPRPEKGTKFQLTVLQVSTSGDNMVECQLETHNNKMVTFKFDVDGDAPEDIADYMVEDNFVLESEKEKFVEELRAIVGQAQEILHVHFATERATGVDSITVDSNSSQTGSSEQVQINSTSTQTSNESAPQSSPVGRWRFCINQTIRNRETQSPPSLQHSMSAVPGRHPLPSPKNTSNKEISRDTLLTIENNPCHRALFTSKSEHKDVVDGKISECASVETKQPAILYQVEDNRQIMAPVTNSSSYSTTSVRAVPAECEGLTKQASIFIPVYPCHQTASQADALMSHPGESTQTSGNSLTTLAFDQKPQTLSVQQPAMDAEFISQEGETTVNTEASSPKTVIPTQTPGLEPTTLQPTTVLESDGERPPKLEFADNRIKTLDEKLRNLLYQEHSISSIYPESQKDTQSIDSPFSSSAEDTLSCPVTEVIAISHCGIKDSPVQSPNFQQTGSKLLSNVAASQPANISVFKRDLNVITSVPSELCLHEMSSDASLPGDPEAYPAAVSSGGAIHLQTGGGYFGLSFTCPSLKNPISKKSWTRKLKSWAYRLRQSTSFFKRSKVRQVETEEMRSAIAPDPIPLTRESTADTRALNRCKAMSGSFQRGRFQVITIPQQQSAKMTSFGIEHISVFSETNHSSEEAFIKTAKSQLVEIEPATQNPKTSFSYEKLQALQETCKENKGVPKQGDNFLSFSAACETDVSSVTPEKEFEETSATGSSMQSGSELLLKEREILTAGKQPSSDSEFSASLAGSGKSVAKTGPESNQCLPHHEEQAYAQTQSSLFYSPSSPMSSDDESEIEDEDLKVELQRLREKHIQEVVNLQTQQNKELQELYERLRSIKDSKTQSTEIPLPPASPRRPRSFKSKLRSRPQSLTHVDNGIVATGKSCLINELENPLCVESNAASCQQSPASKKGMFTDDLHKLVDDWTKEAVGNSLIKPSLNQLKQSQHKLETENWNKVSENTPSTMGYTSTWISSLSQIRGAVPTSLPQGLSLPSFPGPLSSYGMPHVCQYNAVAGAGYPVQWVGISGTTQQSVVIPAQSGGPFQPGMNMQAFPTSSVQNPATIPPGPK
Sequence of GSK3α(h) (P49840 whole entry): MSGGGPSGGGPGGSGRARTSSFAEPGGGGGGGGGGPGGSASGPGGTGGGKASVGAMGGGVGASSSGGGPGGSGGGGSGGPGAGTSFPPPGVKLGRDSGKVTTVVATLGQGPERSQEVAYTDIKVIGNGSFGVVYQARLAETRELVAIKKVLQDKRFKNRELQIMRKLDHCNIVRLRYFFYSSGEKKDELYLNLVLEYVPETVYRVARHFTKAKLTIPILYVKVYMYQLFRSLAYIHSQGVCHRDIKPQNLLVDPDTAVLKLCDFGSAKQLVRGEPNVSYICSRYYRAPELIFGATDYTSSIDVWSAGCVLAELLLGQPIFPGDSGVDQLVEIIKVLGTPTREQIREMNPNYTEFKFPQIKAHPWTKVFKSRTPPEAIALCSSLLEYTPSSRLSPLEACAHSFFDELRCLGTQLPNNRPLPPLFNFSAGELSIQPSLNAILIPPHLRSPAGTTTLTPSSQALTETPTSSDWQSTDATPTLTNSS

## CC(C)CCC(=O)[C@]1(O)C(O)=C(C(=O)C(C)C)C(=O)[C@H]1CCC(C)C [TH2, tetrahydroiso-cohumulone]
[1]; 1 μg/ml
  kinase inhibition: 120% of control
[1]; 5 μg/ml
  kinase inhibition: 111% of control
[1]; 25 μg/ml
  kinase inhibition: 115% of control
[1]; 50 μg/ml
  kinase inhibition: 110% of control
[1]; 100 μg/ml
  kinase inhibition: 97% of control
[2]; 1 μg/ml
  kinase inhibition: 99% of control
[2]; 5 μg/ml
  kinase inhibition: 102% of control
[2]; 25 μg/ml
  kinase inhibition: 78% of control
[2]; 50 μg/ml
  kinase inhibition: 63% of control
[2]; 100 μg/ml
  kinase inhibition: 49% of control
[3]; 1 μg/ml
  kinase inhibition: 135% of control
[3]; 5 μg/ml
  kinase inhibition: 120% of control
[3]; 25 μg/ml
  kinase inhibition: 63% of control
[3]; 50 μg/ml
  kinase inhibition: 37% of control
[3]; 100 μg/ml
  kinase inhibition: 47% of control
[4]; 1 μg/ml
  kinase inhibition: 91% of control
[4]; 5 μg/ml
  kinase inhibition: 53% of control
[4]; 25 μg/ml
  kinase inhibition: 48% of control
[4]; 50 μg/ml
  kinase inhibition: 43% of control
[4]; 100 μg/ml
  kinase inhibition: 46% of control
[5]; 1 μg/ml
  kinase inhibition: 94% of control
[5]; 5 μg/ml
  kinase inhibition: 92% of control
[5]; 25 μg/ml
  kinase inhibition: 61% of control
[5]; 50 μg/ml
  kinase inhibition: 51% of control
[5]; 100 μg/ml
  kinase inhibition: 43% of control
[6]; 1 μg/ml
  kinase inhibition: 111% of control
[6]; 5 μg/ml
  kinase inhibition: 113% of control
[6]; 25 μg/ml
  kinase inhibition: 109% of control
[6]; 50 μg/ml
  kinase inhibition: 113% of control
[6]; 100 μg/ml
  kinase inhibition: 111% of control
[7]; 1 μg/ml
  kinase inhibition: 99% of control
[7]; 5 μg/ml
  kinase inhibition: 102% of control
[7]; 25 μg/ml
  kinase inhibition: 97% of control
[7]; 50 μg/ml
  kinase inhibition: 94% of control
[7]; 100 μg/ml
  kinase inhibition: 92% of control
[8]; 1 μg/ml
  kinase inhibition: 103% of control
[8]; 5 μg/ml
  kinase inhibition: 105% of control
[8]; 25 μg/ml
  kinase inhibition: 105% of control
[8]; 50 μg/ml
  kinase inhibition: 102% of control
[8]; 100 μg/ml
  kinase inhibition: 75% of control
[9]; 1 μg/ml
  kinase inhibition: 102% of control
[9]; 5 μg/ml
  kinase inhibition: 52% of control
[9]; 25 μg/ml
  kinase inhibition: 77% of control
[9]; 50 μg/ml
  kinase inhibition: 106% of control
[9]; 100 μg/ml
  kinase inhibition: 105% of control
